Reference: ChEMBL document CHEMBL1145682, “Bioactive compounds from Taiwania cryptomerioides” (J Nat Prod, 1997)
In brackets after ≈: the same amount, converted by molar mass.

Key:
MCF7 = assay: Cytotoxicity against human MCF7 cells after 7 days by MTT assay; format: functional; conditions: MCF7, 168 h, read-out: ED50 (the source's name)
[1] = Toxicity in Artemia salina; format: organism-based; conditions: in vivo
A549 = assay: Cytotoxicity against human A549 cells after 7 days by MTT assay; format: functional; conditions: A549, 168 h, read-out: ED50 (the source's name)
HT-29 = assay: Cytotoxicity against human HT-29 cells after 7 days by MTT assay; format: functional; conditions: HT-29, 168 h, read-out: ED50 (the source's name)
Aedes aegypti = assay: Insecticidal activity against yellow fever mosquito larvae; format: functional

Compound: CC1=C[C@H]2[C@@H](C(C)C)CC[C@@](C)(O)[C@H]2CC1=O
- EC50 (MCF7): 12.9 µg/mL (≈ 54.5 µM)
- LC50 [1]: 54.4 µg/mL (≈ 230 µM)
- EC50 (A549): 8.78 µg/mL (≈ 37.1 µM)
- EC50 (HT-29): 7.85 µg/mL (≈ 33.2 µM)
- LC50 (Aedes aegypti): 200 µg/mL (≈ 846 µM)

Compound: COc1cccc2c1C(=O)c1c(O)c3c(c(O)c1C2=O)C[C@@](O)(C(=O)CO)C[C@@H]3O[C@H]1C[C@H](N)[C@H](O)[C@H](C)O1 [DOXORUBICIN]
- EC50 (MCF7): 0.189 µg/mL (≈ 0.348 µM)
- EC50 (A549): 0.00499 µg/mL (≈ 0.00918 µM)
- EC50 (HT-29): 0.0357 µg/mL (≈ 0.0657 µM)

Compound: O=C1OCc2c1cc1ccc3c(c1c2-c1ccc2c(c1)OCO2)OCO3 [HELIOXANTHIN]
- LC50 [1]: > 500 µg/mL
- LC50 (Aedes aegypti): 3 µg/mL (≈ 8.61 µM)

Compound: CC1=C[C@@H]2[C@@H](CC1)[C@](C)(O)CC[C@H]2C(C)C
- EC50 (MCF7): 13.1 µg/mL (≈ 58.7 µM)
- LC50 [1]: 9.4 µg/mL (≈ 42.3 µM)
- EC50 (A549): 11.1 µg/mL (≈ 49.9 µM)
- EC50 (HT-29): 0.778 µg/mL (≈ 3.5 µM)
- LC50 (Aedes aegypti): 2 µg/mL (≈ 8.99 µM)

Compound: CC1=C[C@@H]2[C@@H](CC1=O)[C@](C)(O)CC[C@H]2C(C)C
- EC50 (MCF7): 30.1 µg/mL (≈ 127 µM)
- LC50 [1]: 200 µg/mL (≈ 846 µM)
- EC50 (A549): 32.2 µg/mL (≈ 136 µM)
- EC50 (HT-29): 32.5 µg/mL (≈ 138 µM)
- LC50 (Aedes aegypti): 50 µg/mL (≈ 212 µM)

Compound: CC(C)c1cc2c(cc1O)[C@@]1(C)CCCC(C)(C)[C@@H]1CC2 [FERRUGINOL]
- EC50 (MCF7): 23.4 µg/mL (≈ 81.8 µM)
- LC50 [1]: 42.3 µg/mL (≈ 148 µM)
- EC50 (A549): 6.47 µg/mL (≈ 22.6 µM)
- EC50 (HT-29): 6.43 µg/mL (≈ 22.4 µM)
- LC50 (Aedes aegypti): 3 µg/mL (≈ 10.5 µM)

Compound: CC(C)[C@@H]1CC[C@@](C)(O)[C@]2(O)[C@@H](O)C[C@@H](C)C[C@@H]12
- EC50 (MCF7): 41 µg/mL (≈ 160 µM)
- LC50 [1]: 84.8 µg/mL (≈ 331 µM)
- EC50 (A549): 13.3 µg/mL (≈ 52 µM)
- EC50 (HT-29): 12 µg/mL (≈ 46.8 µM)
- LC50 (Aedes aegypti): > 250 µg/mL
